For assay [1], the system named is ER stressed SCG neurons. In words: Survival of tunicamycin-treated (ER stressed) SCG sympathetic neurons after microinjection. It is filed as cell-based, mice. Particulars: tunicamycin 2 μM; for survived neurons as % compared to neurons grown in the presence of NGF: microinjected into cytoplasm, CDNF (400). The method, then: Non-neuronal cells were removed by extensive preplating. Almost pure neurons were cultured in polyornithine/laminin (Sigma)-coated 35-mm plastic dishes in the small-size standard microislands in the Neurobasal medium and B27 supplement (Invitrogen/Gibco) in the presence of 30 ng/ml mouse nerve growth factor (NGF) (Promega) for 5-6 days. NGF was deprived by extensive washing and addition of the function-blocking anti-NGF antibodies (Roche). The neurons were pressure-microinjected with special neuronal microinjection equipment (Hellman et al., 2011; Hamner et al., 2001; Lindholm et al., 2002; Sun et al., 2001; Yu et al., 2003)(Sun et al., 2001; Sun et al., 2003). For the survival assay, all neurons on the microislands were counted in the beginning (initial number) and the end (three days) of the experiment and expressed as % of initial.
Microinjection of the sympathetic neurons was performed as described earlier (Yu, L. Y., Jokitalo, E., Sun, Y. F., Mehlen, P., Lindholm, D., Saarma, M., and Arumae, U. (2003) J Cell Biol. 163, 987-997). Plasmids for CDNF have been described earlier. Briefly, newborn mouse SCG neurons were grown with NGF (Promega) for 5-6 days then the nuclei were microinjected with the expression plasmids for full-length (FL)-CDNF and C-CDNF together with a reporter plasmid for enhanced green fluorescent protein (EGFP), using vector concentration of 10 ng/ul in each experiment. […] For protein microinjection, recombinant full length (FL)-CDNF, C-CDNF proteins in PBS at 200 ng/ul were microinjected directly into the cytoplasm together with fluorescent reporter Dextran Texas Red (MW 70000 Da) (Invitrogen, Molecular Probes) that facilitates identification of the successfully injected neurons. Next day tunicamycin (2 μM) was added, and after 3 days the living fluorescent neurons were counted. Living fluorescent (EGFP-expressing or Dextran Texas Red-containing) neurons were “blindly” counted three days later and expressed as percent of initial living fluorescent neurons counted 2-3 hours after microinjection. The experiments with plasmids were repeated on independent cultures 5 times for plasmid experiment, whereas four independent protein injection experiments were performed. On average, 50-80 neurons were successfully injected per experimental group. The results were expressed as the mean±the SEM. Data of each experimental group was compared with control plasmid PCR3.1 (vector) or PBS (in the protein injection experiments) by one-way ANOVA and post hoc Dunnett's t test. The null hypothesis was rejected at p<0.05.

For assay [2], the system named is dopamine neurons. In words: Survival of TH-positive dopamine neurons in dissociated midbrain floor cultures. The conditions noted are these: 5 days. It is filed as cell-based, mouse. The method, then:
To study the dopamine neurons (Yu et al., 2008; Yu and Arumae, 2008), the midbrain floors were dissected from the ventral mesencephali of 13.5-d-old NMRI strain mouse embryos. Tissues were incubated with 0.5% trypsin (ICN Biomedical), then mechanically dissociated using a large fire-polished Pasteur pipette. The neurons were grown on the poly-L-ornithine-coated (Sigma) 96-well culture plates in DMEM/F12 medium (Invitrogen) containing N2 supplement (Invitrogen) in the presence or absence of GDNF (100 ng/ml) or with CDNF, MANF, C-CDNF and C-MANF polypeptides at different concentrations for five days. Same amount of the neurons were plated to each well at the beginning of the experiments. The cultures without added neurotrophic factors served as the negative control. As the midbrain cultures contain several neuronal types, the cultures were fixed and immunostained with the antibodies to tyrosine hydroxylase (TH) (Millipore), a specific marker for the dopaminergic neurons. Images of each well were scanned by CellInsight™ and immunopositive neurons were counted by CellProfiler and CellProfiler analyst software. Data are expressed as a percentage of GDNF-maintained TH-positive neurons. All experiments were repeated at least three times on the independent cultures. The results were expressed as the mean the SEM and were tested for the significance by either one-way ANOVA and Tukey's post hoc test or by two-tailed Student's t-test. The null hypothesis was rejected at P≤0.05.

Where [3] appears, read: Table 1B (FIG. 16), exp1, counted after 3 days.
The mark [4] stands for this setting: Table 1B (FIG. 16), exp2, counted after 3 days.
Where [5] appears, read: Table 1B (FIG. 16), exp3, counted after 3 days.
The mark [6] stands for this setting: Table 3B (FIG. 17), AVG, 1 ng/ml.
The mark [7] stands for this setting: Table 3B (FIG. 17), AVG, 10 ng/ml.
The mark [8] stands for this setting: Table 3B (FIG. 17), AVG, 100 ng/ml.
The mark [9] stands for this setting: Table 3B (FIG. 17), AVG, 1000 ng/ml.

Take “cerebral dopamine neurotrophic factor [CDNF]”: the “survived neurons as % compared to neurons grown in the presence of NGF” value (shortened to “survived neurons as % … of NGF”) came out at 88.04 % NGF in assay [1] (Table 1A (FIG. 14), AVG of exp1-2); 85.71 % NGF in assay [1] (Table 1A (FIG. 14), exp1, counted after 3 days); 90.36 % NGF in assay [1] (Table 1A (FIG. 14), exp2, counted after 3 days); 86.00 % NGF in assay [1] (setting [3]); 71.23 % NGF in assay [1] (setting [4]); 83.33 % NGF in assay [1] (setting [5]). In assay [1] (expressed from microinjected plasmids, living fluorescent neurons counted after three days), the “rescue of ER stressed SCG sympathetic neurons (result in words)” value was “rescue”. The “rescue of ER stressed SCG neurons (result in words)” value in assay [1] (protein or peptide microinjected into the cytoplasm, living fluorescent neurons counted after 3 days) is on record as “rescue”.
In the case of “TLDLASVDLRKMRVAEPKQILHSWGEECRACAEKTDYVNLIQEPAPKYA (Mutated C-CDNF peptide) [pep14]”, the “survived neurons as % … of NGF” value is 55.76 % NGF in assay [1] (setting [3]), 34.32 % NGF in assay [1] (setting [4]) and 48.43 % NGF in assay [1] (setting [5]). Also, the “survived neurons as % compared to neurons grown in the presence of GDNF” value (“survived neurons as % … of GDNF” below) was determined as 71.49 % GDNF in assay [2] (setting [6]), 84.24 % GDNF in assay [2] (setting [7]), 85.71 % GDNF in assay [2] (setting [8]) and 82.81 % GDNF in assay [2] (setting [9]). Further, the “protection of dopaminergic neurons in culture (result in words)” value in assay [2] (added to the culture medium, TH-positive neurons counted) is “best protective effect”.
Take “TLDLASVDLRKMRVAELKQILHSWGEECRARACAEKTDYVNLIQELAPKYA (Mutated C-CDNF peptide) [pep11]”: the “survived neurons as % … of NGF” value in assay [1] (setting [3]) is listed as 46.25 % NGF; in assay [1] (setting [4]) it was 48.61 % NGF; in assay [1] (setting [5]), 44.64 % NGF. The “survived neurons as % … of GDNF” value was found to be 59.60 % GDNF in assay [2] (setting [6]), 60.76 % GDNF in assay [2] (setting [7]), 69.28 % GDNF in assay [2] (setting [8]) and 70.22 % GDNF in assay [2] (setting [9]).

B1: glial cell line-derived neurotrophic factor (protein, UniProt P39905 78-211, looked up)
Glial cell line-derived …: SPDKQMAVLPRRERNRQAAAANPENSRGKGRRGQRGKNRGCVLTAIHLNVTDLGLGYETKEELIFRYCSGSCDAAETTYDKILKNLSRNRRLVSDKVGQACCRPIAFDDDLSFLDDNLVYHILRKHSAKRCGCI
notes: Positive control neurotrophic factor, 100 ng/ml
As for B1, the “survived neurons as % … of GDNF” value in assay [2] (Table 3A (FIG. 15), AVG, 100 ng/ml) was found to be 100 % GDNF; in assay [2] (Table 3A (FIG. 15), exp1, 100 ng/ml) it was 100 % GDNF; in assay [2] (Table 3A (FIG. 15), exp2, 100 ng/ml), 100 % GDNF; in assay [2] (Table 3A (FIG. 15), exp3, 100 ng/ml), 100 % GDNF; in assay [2] (setting [8]), 100 % GDNF.

These data come from patent US12479895B2, “C-terminal CDNF and MANF fragments, pharmaceutical compositions comprising same and uses thereof” (MyNeuroCure Oy, priority 2018, dated 2025).
